The text below walks through data of ChEMBL document CHEMBL5653615 (J Biol Chem, 2013).

Usually inhibition stands for the change of the read-out against control, counted positive when it falls.

Assay [1] concerns the target RAF proto-oncogene serine/threonine-protein kinase (Homo sapiens) (UniProt P04049). In words: Inhibition of human RAF1 at 18.6 nM by HotSpot assay relative to control.
The target of assay [2] is Tyrosine-protein kinase Fes/Fps (Homo sapiens) (UniProt P07332). The experiment in a line: Inhibition of human FES at 18.6 nM by HotSpot assay relative to control.
In assay [3] the target is T1, Serine/threonine-protein kinase 3 (Homo sapiens) (UniProt Q13188).
T1 sequence (whole entry): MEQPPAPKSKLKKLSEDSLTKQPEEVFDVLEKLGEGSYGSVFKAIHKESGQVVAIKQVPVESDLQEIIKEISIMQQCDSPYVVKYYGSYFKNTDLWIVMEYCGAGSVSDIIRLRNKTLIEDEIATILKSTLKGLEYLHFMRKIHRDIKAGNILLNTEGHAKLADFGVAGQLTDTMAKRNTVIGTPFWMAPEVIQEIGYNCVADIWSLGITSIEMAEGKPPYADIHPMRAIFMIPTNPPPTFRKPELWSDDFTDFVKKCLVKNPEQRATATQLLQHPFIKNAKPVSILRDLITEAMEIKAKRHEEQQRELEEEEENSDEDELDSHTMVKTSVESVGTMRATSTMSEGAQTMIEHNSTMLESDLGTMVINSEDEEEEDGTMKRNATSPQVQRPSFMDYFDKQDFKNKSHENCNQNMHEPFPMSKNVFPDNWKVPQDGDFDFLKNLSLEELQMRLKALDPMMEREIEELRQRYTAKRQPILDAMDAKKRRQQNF
The experiment in a line: Inhibition of human STK3 at 18.6 nM by HotSpot assay relative to control.

Assay [4] deals with T2, Inhibitor of nuclear factor kappa-B kinase subunit beta (Homo sapiens) (UniProt O14920).
T2 sequence (whole entry): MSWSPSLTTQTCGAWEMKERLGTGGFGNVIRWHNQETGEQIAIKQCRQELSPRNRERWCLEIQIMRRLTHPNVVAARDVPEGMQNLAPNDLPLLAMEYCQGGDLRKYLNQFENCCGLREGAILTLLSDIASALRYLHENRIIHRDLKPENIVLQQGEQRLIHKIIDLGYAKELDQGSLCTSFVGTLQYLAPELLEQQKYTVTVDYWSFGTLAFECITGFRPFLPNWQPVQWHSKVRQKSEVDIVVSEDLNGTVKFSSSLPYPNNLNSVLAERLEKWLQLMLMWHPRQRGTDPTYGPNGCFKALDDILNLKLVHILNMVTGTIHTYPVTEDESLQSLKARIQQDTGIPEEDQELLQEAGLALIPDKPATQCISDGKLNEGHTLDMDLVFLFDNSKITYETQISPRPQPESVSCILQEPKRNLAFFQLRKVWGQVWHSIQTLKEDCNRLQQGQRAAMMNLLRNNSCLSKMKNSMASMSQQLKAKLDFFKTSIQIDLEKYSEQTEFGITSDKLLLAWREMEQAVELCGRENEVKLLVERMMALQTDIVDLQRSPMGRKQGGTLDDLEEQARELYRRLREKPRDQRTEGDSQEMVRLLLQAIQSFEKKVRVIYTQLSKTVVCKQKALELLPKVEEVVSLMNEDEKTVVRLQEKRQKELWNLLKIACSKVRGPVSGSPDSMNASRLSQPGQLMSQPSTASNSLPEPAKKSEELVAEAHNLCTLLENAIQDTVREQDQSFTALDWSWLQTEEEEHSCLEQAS
The experiment in a line: Inhibition of human IKKb at 18.6 nM by HotSpot assay relative to control.

The target of assay [5] is T3, 3-phosphoinositide-dependent protein kinase 1 (Homo sapiens) (UniProt O15530).
T3 sequence (whole entry): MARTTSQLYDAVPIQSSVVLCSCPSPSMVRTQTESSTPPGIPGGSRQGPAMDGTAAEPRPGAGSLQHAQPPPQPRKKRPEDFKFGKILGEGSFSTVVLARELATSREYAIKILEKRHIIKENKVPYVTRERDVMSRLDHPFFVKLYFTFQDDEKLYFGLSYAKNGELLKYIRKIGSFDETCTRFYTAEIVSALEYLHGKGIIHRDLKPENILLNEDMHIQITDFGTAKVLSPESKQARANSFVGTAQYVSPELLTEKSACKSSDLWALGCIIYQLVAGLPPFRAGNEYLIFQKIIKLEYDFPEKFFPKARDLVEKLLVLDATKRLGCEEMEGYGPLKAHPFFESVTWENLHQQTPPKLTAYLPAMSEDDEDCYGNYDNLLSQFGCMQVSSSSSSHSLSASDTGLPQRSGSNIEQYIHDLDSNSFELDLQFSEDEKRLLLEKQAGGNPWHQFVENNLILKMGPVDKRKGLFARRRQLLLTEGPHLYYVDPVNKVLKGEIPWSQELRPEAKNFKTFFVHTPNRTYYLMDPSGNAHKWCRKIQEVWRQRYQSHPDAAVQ
The experiment in a line: Inhibition of human PDPK1 at 18.6 nM by HotSpot assay relative to control.

Assay [6] deals with Ribosomal protein S6 kinase beta-2 (Homo sapiens) (UniProt Q9UBS0). In words: Inhibition of human RPS6KB2 at 18.6 nM by HotSpot assay relative to control.
Assay [7] deals with cAMP-dependent protein kinase (PKA) (Homo sapiens) (UniProt P22694+P17612+P22612). The experiment in a line: Inhibition of human PKA at 18.6 nM by HotSpot assay relative to control. It counts as protein assay.
The target in assay [8] is Tyrosine-protein kinase Fyn (Homo sapiens) (UniProt P06241). In words: Inhibition of human FYN at 1.82 nM by HotSpot assay relative to control.
The target in assay [9] is Tyrosine-protein kinase Fgr (Homo sapiens) (UniProt P09769). In words: Inhibition of human FGR at 1.82 nM by HotSpot assay relative to control.
Assay [10] deals with Serine/threonine-protein kinase N1 (Homo sapiens) (UniProt Q16512). In words: Inhibition of human PRK1 at 1.82 nM by HotSpot assay relative to control.
Chain of Serine/threonine-protein kinase N1 (Homo sapiens) (Q16512 2-942 limits assumed): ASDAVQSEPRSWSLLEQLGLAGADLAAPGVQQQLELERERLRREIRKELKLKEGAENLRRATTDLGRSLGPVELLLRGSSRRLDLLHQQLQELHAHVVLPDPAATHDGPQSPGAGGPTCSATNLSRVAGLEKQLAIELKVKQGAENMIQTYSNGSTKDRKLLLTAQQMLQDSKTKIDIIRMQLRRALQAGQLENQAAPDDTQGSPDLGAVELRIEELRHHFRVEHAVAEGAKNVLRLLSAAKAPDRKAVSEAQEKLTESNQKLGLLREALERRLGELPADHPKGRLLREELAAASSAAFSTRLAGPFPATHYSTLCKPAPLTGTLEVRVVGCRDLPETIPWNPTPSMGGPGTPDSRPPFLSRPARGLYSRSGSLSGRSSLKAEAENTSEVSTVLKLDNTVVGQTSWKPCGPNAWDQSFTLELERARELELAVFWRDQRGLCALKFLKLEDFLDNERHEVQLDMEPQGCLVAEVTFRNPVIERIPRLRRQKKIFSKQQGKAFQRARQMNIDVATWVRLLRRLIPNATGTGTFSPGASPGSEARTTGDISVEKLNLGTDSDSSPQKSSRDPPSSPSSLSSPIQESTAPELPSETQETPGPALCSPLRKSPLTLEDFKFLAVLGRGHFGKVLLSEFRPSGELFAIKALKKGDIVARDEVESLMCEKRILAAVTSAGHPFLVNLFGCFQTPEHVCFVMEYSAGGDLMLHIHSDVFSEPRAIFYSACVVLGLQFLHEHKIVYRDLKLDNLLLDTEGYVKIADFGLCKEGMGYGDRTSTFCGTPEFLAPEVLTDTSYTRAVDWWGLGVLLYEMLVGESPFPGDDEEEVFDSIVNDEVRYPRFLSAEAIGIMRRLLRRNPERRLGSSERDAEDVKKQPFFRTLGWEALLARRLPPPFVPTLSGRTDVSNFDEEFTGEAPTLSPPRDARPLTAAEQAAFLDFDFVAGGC

Chain of Ribosomal protein S6 kinase beta-2 (Homo sapiens) (Q9UBS0 whole entry): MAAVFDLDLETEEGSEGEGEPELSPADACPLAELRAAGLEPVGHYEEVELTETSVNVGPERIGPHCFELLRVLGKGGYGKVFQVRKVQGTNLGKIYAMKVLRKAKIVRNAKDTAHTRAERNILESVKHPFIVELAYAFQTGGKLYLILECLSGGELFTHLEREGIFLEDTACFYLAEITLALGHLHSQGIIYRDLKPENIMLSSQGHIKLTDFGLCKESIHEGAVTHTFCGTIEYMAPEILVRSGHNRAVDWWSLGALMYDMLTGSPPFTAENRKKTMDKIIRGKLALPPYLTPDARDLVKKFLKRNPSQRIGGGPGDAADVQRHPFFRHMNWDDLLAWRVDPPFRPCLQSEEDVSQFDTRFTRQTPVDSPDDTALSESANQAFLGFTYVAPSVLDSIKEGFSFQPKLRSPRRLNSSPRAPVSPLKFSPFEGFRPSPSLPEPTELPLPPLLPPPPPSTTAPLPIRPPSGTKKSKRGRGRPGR
Chain of RAF proto-oncogene serine/threonine-protein kinase (Homo sapiens) (P04049 whole entry): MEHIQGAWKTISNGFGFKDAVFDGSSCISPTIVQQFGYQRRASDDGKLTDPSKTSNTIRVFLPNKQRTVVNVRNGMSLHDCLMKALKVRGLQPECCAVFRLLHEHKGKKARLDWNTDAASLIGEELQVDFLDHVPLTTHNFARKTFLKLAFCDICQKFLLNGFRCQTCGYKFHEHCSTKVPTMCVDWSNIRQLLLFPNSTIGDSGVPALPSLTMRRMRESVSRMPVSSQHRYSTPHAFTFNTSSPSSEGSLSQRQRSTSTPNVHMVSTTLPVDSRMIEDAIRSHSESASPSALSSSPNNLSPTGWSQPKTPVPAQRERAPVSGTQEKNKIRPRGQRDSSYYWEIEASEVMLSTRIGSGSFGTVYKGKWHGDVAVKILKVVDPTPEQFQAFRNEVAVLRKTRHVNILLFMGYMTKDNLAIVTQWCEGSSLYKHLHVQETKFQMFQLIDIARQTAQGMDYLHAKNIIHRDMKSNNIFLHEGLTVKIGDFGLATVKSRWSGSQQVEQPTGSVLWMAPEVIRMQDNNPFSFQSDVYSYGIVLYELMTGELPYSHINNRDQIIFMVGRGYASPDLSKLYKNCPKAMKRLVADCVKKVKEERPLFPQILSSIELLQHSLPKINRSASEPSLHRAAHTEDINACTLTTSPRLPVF
Chain of Tyrosine-protein kinase Fyn (Homo sapiens) (P06241 2-537 limits assumed): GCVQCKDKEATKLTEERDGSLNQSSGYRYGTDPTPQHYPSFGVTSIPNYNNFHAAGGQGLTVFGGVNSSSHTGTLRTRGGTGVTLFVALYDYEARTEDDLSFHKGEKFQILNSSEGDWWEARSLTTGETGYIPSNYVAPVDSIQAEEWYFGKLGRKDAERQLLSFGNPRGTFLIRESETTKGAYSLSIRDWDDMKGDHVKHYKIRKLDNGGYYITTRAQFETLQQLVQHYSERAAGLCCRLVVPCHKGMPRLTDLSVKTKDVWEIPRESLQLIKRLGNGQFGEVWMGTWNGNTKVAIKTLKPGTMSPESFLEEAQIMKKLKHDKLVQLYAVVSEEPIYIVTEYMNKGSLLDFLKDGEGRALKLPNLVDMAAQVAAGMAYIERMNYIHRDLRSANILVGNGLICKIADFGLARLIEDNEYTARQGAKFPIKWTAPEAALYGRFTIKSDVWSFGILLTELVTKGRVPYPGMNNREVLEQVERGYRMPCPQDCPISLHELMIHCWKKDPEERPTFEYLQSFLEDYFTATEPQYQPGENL
Chain of Tyrosine-protein kinase Fes/Fps (Homo sapiens) (P07332 whole entry): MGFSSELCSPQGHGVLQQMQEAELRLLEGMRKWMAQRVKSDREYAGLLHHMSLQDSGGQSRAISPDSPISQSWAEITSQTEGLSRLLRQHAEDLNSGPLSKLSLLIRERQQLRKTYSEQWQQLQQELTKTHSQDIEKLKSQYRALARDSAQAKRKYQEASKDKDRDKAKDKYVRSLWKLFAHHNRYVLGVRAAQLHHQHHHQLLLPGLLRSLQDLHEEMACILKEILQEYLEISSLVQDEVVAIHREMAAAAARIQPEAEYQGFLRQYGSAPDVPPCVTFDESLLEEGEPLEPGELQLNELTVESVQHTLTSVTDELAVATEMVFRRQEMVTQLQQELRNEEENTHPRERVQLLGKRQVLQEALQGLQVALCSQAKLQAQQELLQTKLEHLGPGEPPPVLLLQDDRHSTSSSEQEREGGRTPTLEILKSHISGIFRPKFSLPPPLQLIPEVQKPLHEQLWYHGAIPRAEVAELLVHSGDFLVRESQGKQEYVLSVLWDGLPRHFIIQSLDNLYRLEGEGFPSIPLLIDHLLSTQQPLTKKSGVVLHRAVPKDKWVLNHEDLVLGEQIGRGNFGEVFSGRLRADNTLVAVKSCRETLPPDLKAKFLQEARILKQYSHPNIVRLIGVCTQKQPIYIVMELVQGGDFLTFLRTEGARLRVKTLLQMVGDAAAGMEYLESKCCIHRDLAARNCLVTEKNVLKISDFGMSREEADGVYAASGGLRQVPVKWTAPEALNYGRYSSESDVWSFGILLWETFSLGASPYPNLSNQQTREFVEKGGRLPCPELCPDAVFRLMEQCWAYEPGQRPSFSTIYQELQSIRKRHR
Chain of Tyrosine-protein kinase Fgr (Homo sapiens) (P09769 2-529 limits assumed): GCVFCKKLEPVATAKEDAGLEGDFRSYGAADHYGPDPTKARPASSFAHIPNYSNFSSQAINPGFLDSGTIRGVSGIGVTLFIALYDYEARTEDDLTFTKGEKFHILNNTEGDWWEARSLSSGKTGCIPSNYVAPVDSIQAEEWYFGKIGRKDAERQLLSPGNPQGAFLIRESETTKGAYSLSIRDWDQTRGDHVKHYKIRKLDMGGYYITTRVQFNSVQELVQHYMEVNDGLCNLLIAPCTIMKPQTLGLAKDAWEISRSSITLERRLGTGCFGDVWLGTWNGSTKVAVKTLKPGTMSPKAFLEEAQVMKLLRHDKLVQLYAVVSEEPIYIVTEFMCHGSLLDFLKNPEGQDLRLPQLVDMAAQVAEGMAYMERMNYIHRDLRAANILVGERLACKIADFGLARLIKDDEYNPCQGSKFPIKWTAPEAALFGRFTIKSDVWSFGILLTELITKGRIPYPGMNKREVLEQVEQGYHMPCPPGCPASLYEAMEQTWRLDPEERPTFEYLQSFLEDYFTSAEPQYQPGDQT

Consider `C[C@]1(O)C[C@@H](c2nc(-c3ccc4ccc(-c5ccccc5)nc4c3)c3c(N)nccn32)C1`, for which the inhibition was -5.79% in assay [1]; 1.59% in assay [2]; -2.45% in [3]; -2.87% in assay [4]; -0.41% in [5]; 0.94% in assay [6]. For the same compound, the inhibition in assay [7] was -8.62%.
As for `C[C@@]1(C(=O)Nc2ccc(F)nc2)CCCN1c1nc(Nc2cc(C3CC3)n[nH]2)c2cccn2n1`, the inhibition was -6.23% in [8], -3.39% in [9] and -8.35% in assay [10].
